According to publication PMC8438204, “Unraveling the Thermodynamics of Ultra-tight Binding of Intrinsically Disordered Proteins” (Frontiers in Molecular Biosciences, 2021):
Where two headings read alike, the source gives them in different places. Marks after values point to notes of the source that are not given here.

Columns and labels:
HigB2 toxin [1] = biological target: T1, HigB2 toxin (Vibrio cholerae serotype O1, UniProt Q9KMA6); test: Competition ITC (global fit of direct and competition titrations with nanobody-HigB2 complex); format: binding; design: made in house; settings: for ΔG (association): competition ITC (Nb6/Nb10), VP-ITC, 4 µM HigB2; for ΔG (association) / ΔH (association) / −TΔS (association): 20 mM sodium phosphate pH 7.5, 150 mM NaCl, three replicates
T1 sequence (Q9KMA6 1-110): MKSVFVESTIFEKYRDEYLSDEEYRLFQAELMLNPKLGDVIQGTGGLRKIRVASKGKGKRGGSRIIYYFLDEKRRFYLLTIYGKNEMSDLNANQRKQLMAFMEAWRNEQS

CcdB2 = settings: ref Drobnak et al., 2013, cited from earlier work
Experimental: Supplement DataSheet1.docx, table 1: Table S1. Thermodynamic parameters and structural properties of the complexes. All parameters are reported at T = 25°C. | column: Thermodynamic parameters || Nonetheless, a handful of examples of IDP binders with ultra-high affinity have been characterized to date. […] Complexes are ordered according to the degree of energy optimization as estimated by the ΔH bind/ASAint values. For the HigA2_3-23-HigB2 complex the degree of energy optimization is similar to one observed for the pairs of globular high affinity binders (Supplementary Table S1, Figure 3A). […] The high affinit ...

[2] = tested on: E9-Im9 (colicin DNase - immunity protein); settings: ref Keeble et al., 2006, cited from earlier work
Experimental: Supplement DataSheet1.docx, table 1: Table S1. Thermodynamic parameters and structural properties of the complexes. All parameters are reported at T = 25°C. | column: Thermodynamic parameters

HigB2 toxin [3] = biological target: T1, HigB2 toxin; settings: full-length HigA2; temperature-dependent ITC; ref Hadži et al., 2017a; cited from earlier work
[4] = 25°C, competition ITC, listed as Full-length HigA2

CC(C)C[C@H](NC(=O)[C@H](C)NC(=O)[C@H](CO)NC(=O)[C@H](CO)NC(=O)[C@H](CC(C)C)NC(=O)[C@H](CCC(=O)O)NC(=O)[C@H](C)NC(=O)[C@H](Cc1ccccc1)NC(=O)[C@H](CC(C)C)NC(=O)[C@H](CC(=O)O)NC(=O)[C@H](CCCNC(=N)N)NC(=O)[C@@H](N)CC(N)=O)C(=O)N[C@H](C(=O)N[C@@H](CCC(=O)O)C(=O)N[C@@H](C)C(=O)N[C@@H](CCCCN)C(=O)N[C@@H](CCC(N)=O)C(=O)N[C@@H](Cc1c[nH]cn1)C(=O)N[C@@H](CO)C(=O)N[C@@H](CCC(=O)O)C(=O)NCC(=O)N[C@@H](Cc1c[nH]c2ccccc12)C(=O)O)C(C)C [HigA2_3-23]
Kd (HigB2 toxin [1]): 3 pM

CcdA37-72 (RRLRAERWKAENQEGMAEVARFIEMNGSFADENRDW; UniProt P62552 37-72, looked up, fragment)
-TΔS (binding) (CcdB2; 25°C, binding contribution): -0.5 kcal/mol | ΔG (binding) (CcdB2; 25°C, binding contribution): -19.4 kcal/mol | ΔH (binding) (CcdB2; 25°C, binding contribution): -18.9 kcal/mol | -TΔS (folding) (CcdB2; 25°C, folding contribution): 20.4 kcal/mol | ΔG (folding) (CcdB2; 25°C, folding contribution): 3.8 kcal/mol | ΔH (folding) (CcdB2; 25°C, folding contribution): -16.6 kcal/mol | -TΔS (association) (CcdB2; 25°C): 19.9 ± 0.3 kcal/mol | ΔG (association) (CcdB2; 25°C): -15.6 ± 0.1 kcal/mol | ΔH (association) (CcdB2; 25°C): -35.5 ± 0.2 kcal/mol | ΔCp (association) (CcdB2): -0.63 ± 0.02 kcal mol^-1 K^-1

E9-Im9
-TΔS ([2]; 25°C): -8.1 ± 0.5 kcal/mol | ΔG ([2]; 25°C): -18.6 ± 0.1 kcal/mol | ΔCp [2]: -0.45 kcal mol^-1 K^-1

HigA2
ΔCp (association) (HigB2 toxin [3]): −0.95^a kcal mol^−1 K^-1 | ΔG (association) (HigB2 toxin [1]; 25°C): -14.7 kcal/mol | ΔG (association) (HigB2 toxin [1]; 25°C, listed as Full-length HigA2): -14.7 ± 0.9 kcal/mol | ΔH (association) (HigB2 toxin [1]; 25°C, competition ITC): -31.5 kcal/mol | −TΔS (association) (HigB2 toxin [1]; 25°C, competition ITC): 16.8 kcal/mol | ΔH (association) (HigB2 toxin [1]; [4]): -31.5 ± 1.0 kcal/mol | −TΔS (association) (HigB2 toxin [1]; [4]): 16.8 ± 1.9 kcal/mol | Kd (HigB2 toxin [1]; 25°C, competition ITC, value given in abstract, introduction, discussion and Figure 4 under the name HigA2, read-out: KD stated for HigA2-HigB2): 3 pM
